These results are taken from US20260055107A1, “SERIES OF NITROGEN-CONTAINING BRIDGED HETEROCYCLIC COMPOUNDS AND PREPARATION METHOD THEREFOR” (CMS RESEARCH & DEVELOPMENT PTE. LTD., priority 2022, published 2026).

Series [1] addresses human complement Factor B protein (Homo sapiens (Human), UniProt P00751). Put plainly: Complement human Factor B protein binding test (SPR method). The following applies: Biacore 8K, 1:1 Binding Kinetics Model. The procedure: Experimental purpose: To detect the kinetic constants and affinity of the binding between the test compounds and human complement Factor B using the SPR method.
1-Ethyl-3-(3-dimethylaminopropyl) carbodiimide hydrochloride (EDC) and N-hydroxysulfosuccinimide sodium salt (NHS) were mixed in a 1:1 ratio, and complement Factor B was diluted to 20 μg/mL in acetic acid solution with a pH of 5.5. Using a biomacromolecule interaction analyzer Biacore 8K, the programmed settings were set to add the EDC/NHS, the FB protein solution and the 1 M ethanolamine-hydrochloric acid solution to the detection plate. The detection plate was placed in the machine detection chamber, and the EDC/NHS mixture, the complement Factor B protein solution and the 1 M ethanolamine-hydrochloric acid solution were sequentially injected onto the surface of the CM5 chip according to the procedure for chip activation, ligand coupling and deactivation. The flow cell 1 of each channel was used as a reference channel for surface activation and deactivation only, without injection of complement Factor B protein solution. All sample stock solutions were diluted with running buffer (PBST), and all samples were serially diluted 2 times in duplicate for 6 points. The prepared sample was transferred to the detection plate according to the program settings and the detection plate was placed in the sample chamber of Biacore 8K. The detection program was run, and the samples were injected into each channel of the chip sequentially according to the program, with a binding time of 120 s, a dissociation time of 600 s and a flow rate of 30 μL/min. The data were analyzed using Biacore Insight Evaluation Software: The data were fitted using a 1:1 Binding Kinetics Model to obtain the binding rate constant (kon), dissociation rate constant (koff) and dissociation equilibrium constant (KD) for binding of each test sample to complement Factor B protein.

The nature of series [2]: In vitro liver microsomal stability test. The following applies: 1 μM compound, 0.5 mg/mL liver microsomes, NADPH. The format is in vitro ADME, human. The procedure: Liver microsomes: purchased from Corning or Xenotech, stored in a −80° C. refrigerator; reduced nicotinamide adenine dinucleotide phosphate (NADPH), supplier: Chem-Impex International, Cat. No.: 00616; control compounds: testosterone, diclofenac, propafenone.
Stock solution: 10 mM DMSO solution; preparation of working concentration: The stock solution was diluted to 100 μM using 100% acetonitrile (organic phase content: 99% acetonitrile, 1% DMSO).
Two 96-well incubation plates were prepared and named as T60 incubation plate and NCF60 incubation plate.
445 μL of microsomal working solution (liver microsomal protein concentration of 0.56 mg/mL) was added to both the T60 incubation plate and the NCF60 incubation plate. The two incubation plates were pre-incubated in a 37° C. water bath for approximately 10 minutes.
After pre-incubation was completed, 5 μL of the test compound or control compound working solution was added to both the T60 incubation plate and the NCF60 incubation plate and mixed well. 50 μL of potassium phosphate buffer per well was added to the NCF60 incubation plate to initiate the reaction. 180 μL of termination solution (acetonitrile solution containing 200 ng/mL tolbutamide and 200 ng/mL labetalol) and 6 μL of NADPH regeneration system working solution were added to a TO termination plate. […]
(Microsomes from liver hold many membrane-bound enzymes, among them those of drug oxidation.)

A short description of series [3]: Plasma protein binding rate test (equilibrium dialysis), human. The format is in vitro ADME. The following applies: 2 μM, equilibrium dialysis 37° C. 4 hours. The procedure: (§1) Experimental purpose: To evaluate the protein binding rate of the compounds of the present disclosure in the plasma of CD-1 mice, SD rats, beagle dogs, cynomolgus monkeys and humans using equilibrium dialysis.
(§2) The test compounds were diluted with dialysis buffer into the plasma of the above five species to prepare samples with a final concentration of 2 μM. The samples were then added to a 96-well equilibrium dialysis device and dialyzed using phosphate buffered saline solution at 37° C. for 4 hours. Warfarin was used as a control compound in the experiment. The concentration of the test compounds and warfarin in the plasma and buffer was determined using LC-MS/MS. The free fraction of the compound was calculated by the following formula: PPB_Unbound (%)=100*FC/TC, where FC is the concentration of the compound at the buffer end of the dialysis plate; TC is the concentration of the compound at the plasma end of the dialysis plate; To is the concentration of the compound in the plasma sample at time zero.
In general terms: In equilibrium dialysis free small molecules cross a membrane that holds back macromolecules.

A short description of series [4]: Plasma protein binding rate test (equilibrium dialysis), cynomolgus monkey. In kind it is in vitro ADME, cynomolgus monkeys. The following applies: 2 μM, equilibrium dialysis 37° C. 4 hours. The procedure: as §1, §2
Series [5] is described as follows: Plasma protein binding rate test (equilibrium dialysis), dog. In kind it is in vitro ADME, beagle dogs. Particulars: 2 μM, equilibrium dialysis 37° C. 4 hours, beagle dog plasma. The procedure:
as §1, §2

The nature of series [6]: Plasma protein binding rate test (equilibrium dialysis), mouse. In kind it is in vitro ADME, CD-1 mice. The following applies: 2 μM, equilibrium dialysis 37° C. 4 hours, CD-1 mouse plasma. The procedure: as §1, §2

SMILES strings stand for the structures.

Chain of human complement Factor B protein (P00751 26-764): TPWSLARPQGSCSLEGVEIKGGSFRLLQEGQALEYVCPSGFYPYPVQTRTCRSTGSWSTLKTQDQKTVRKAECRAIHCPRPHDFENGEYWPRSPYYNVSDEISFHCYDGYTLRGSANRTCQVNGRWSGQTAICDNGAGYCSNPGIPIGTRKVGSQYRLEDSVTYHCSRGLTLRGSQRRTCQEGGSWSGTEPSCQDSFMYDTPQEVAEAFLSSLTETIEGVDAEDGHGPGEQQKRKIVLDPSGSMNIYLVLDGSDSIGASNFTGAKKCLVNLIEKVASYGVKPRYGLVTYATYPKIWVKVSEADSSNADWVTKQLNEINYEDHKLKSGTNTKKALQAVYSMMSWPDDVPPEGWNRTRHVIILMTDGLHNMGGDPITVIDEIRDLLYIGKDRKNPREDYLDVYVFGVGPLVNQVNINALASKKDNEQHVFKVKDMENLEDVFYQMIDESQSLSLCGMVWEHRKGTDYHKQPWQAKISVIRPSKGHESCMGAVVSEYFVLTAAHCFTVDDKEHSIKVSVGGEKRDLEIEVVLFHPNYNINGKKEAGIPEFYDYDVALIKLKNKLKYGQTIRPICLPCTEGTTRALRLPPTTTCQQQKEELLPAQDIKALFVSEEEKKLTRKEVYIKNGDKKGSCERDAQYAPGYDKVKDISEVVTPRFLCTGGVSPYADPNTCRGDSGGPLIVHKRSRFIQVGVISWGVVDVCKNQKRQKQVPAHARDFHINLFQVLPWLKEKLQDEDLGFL

For the compound `COc1cc(C)c2[nH]ccc2c1CN1C2CCC1(c1ccc(C(=O)O)cc1)CC(C1CC1)C2` (single isomer, unassigned) [Compound 3B], the Kd in series [1] is < 100 nM. Besides, the “Human liver microsomal stability CLint” value in series [2] is on record as <15 mL/min/kg. The “Plasma protein binding (PPB) unbound, Human (H)” value in series [3] was found to be 15.2%. The “Plasma protein binding (PPB) unbound, Cynomolgus monkey (C)” value in series [4] is on record as 28.5%. Besides, the “Plasma protein binding (PPB) unbound, Dog (D)” value in series [5] was 25.6%. The “Plasma protein binding (PPB) unbound, Mouse (M)” value in series [6] came out at 19.1%.

A word on the Kd: it is the free concentration of one partner at which half of the binding sites on the other are occupied at equilibrium, for simple one-to-one binding.
